These results are taken from patent US7420060B2, “Benzopyran derivatives substituted with a thioxobenzoxazole derivative, pharmaceutically acceptable salts thereof, their preparations and pharmaceutical compositions containing them” (Schaeffler KG, priority 2003, dated 2008).

In this test the test system is ischemic heart isolated from white rat. The test can be described thus: Cardioprotective effect on isolated ischemic rat heart (Langendorff, 30 min global ischemia / 30 min reperfusion). The note with it: 10 μM; for LDH (concentration of lactate dehydogenase): after 30 min reperfusion; for EDP (left ventricular end diastolic pressure): after reperfusion, baseline set at 5 mmHg; for LVDP × HR (left ventricular developed pressure × heart rate): reperfusion DP as % of pre-treatment DP, 30 min after reperfusion. How it is done: 100 mg/kg of sodium pentobarbital was injected in abdominal cavity of white male rats (300˜450 g, obtained form the experimental animal team of the Korea Research Institute of Chemical Technology) to anesthetize them. Then, an intravenous injection of 1000 U/kg of heparin was performed before taking out heart. Particularly, cannula(PE 240) was inserted in the trachea, and artificial respiration was tried upon the rat by using a rodent ventilator. Under that condition, aortic cannula was inserted in the aorta and heart was taken out under retrograde perfusion. The extracted heart was hung on Langendorff apparatus quickly and unnecessary tissues on heart were removed. Perfusion was induced under static pressure (85 mmHg) with 37° C. modified Krebs-Henseleit bicarbonate buffer (composition <mM/L>: 116 NaCl, 4.7 KCl, 1.1 MgSO4, 1.17 KH2PO4, 24.9 NaHCO3, 2.52 CaCl2, 8.32 Glucose, 2.0 Pyruvate) saturated with 95% O2/5% CO2. A metal cannula, to which a latex balloon filled with an ethanol-distilled water mixture (1:1 vol/vol) was linked, was inserted in left ventricle through pulmonary vein. Then, left ventricular pressure transmitted through the balloon was transduced by using pressure transducer, and amplified by using Plugsys bridge amplifier isovolumetrically. Then, the pressure was recorded in a recorder (Linearcorder mark 8 WR 3500). Thereafter, heart was stabilized for 15 minutes. Then, left ventricular end diastolic pressure (LVEDP) was given by 5 mmHg and such volume of the balloon was kept all through the experiments.
Baseline cardiac contractile function, heart rate (HR), and coronary flow (CF) were measured. Cardiac contractile function was calculated by […], yielding LVDP (left ventricular developed pressure). Double product RPP (rate-pressure product)(DP), another important parameter for indirectly assessing cardiac performance in Langendorff heart, whose cardiac output could not be measured ordinarily, was calculated by multiplying HR by LVDP. Throughout the experiment, total coronary blood flow was measured by the use of coronary flow probe (diameter: 1.0 mm) installed in aortic cannula with electromagnetic flowmeter. Temperature of heart was steadily maintained by immersing the heart at 37° C. in physiological saline solution to which 95% O2/5% CO2 was constantly supplied. After stabilization for 15 min, the hearts were pre-treated for 10 min with vehicle (0.04% DMSO) only or a compound of the present invention or the control material in the vehicle. Thereafter, cardiac contractile function, HR and CF were repeatedly measured. Global ischemia was induced by completely shutting off the perfusate for 30 min. Severity of ischemia was determined as the time to contracture (TTC, min) during global ischemia in which the first 5 mmHg increase in EDP was observed. Then, the hearts were reperfused and, 30 min later, contractile functions (LVDP, HR and CF) were repeatedly measured. After reperfusion was accomplished for 30 min, LDH (lactate dehydrogenase) was measured with a kit as a sensitive index for loss of cell viability.

The mark [1] stands for this setting: during 30 min global ischemia, first 5 mmHg increase in EDP.

As for `COC(OC)[C@]1(C)Oc2ccc([N+](=O)[O-])cc2[C@@H](n2c(=S)oc3ccccc32)[C@@H]1O` [Example 2, (2R,3S,4R)-6-nitro-3,4-dihydro-3-hydroxy-2-dimethoxymethyl-2-methyl-4-(2-thioxobenzoxazol-3-yl)-2H-1-benzopyran], the “LDH (concentration of lactate dehydogenase)” value (shortened to “LDH”) stood at 17.9 unit/g, the “EDP (left ventricular end diastolic pressure)” value (shortened to “EDP”) stood at 29.3 mmHg and the “LVDP × HR (left ventricular developed pressure × heart rate)” value (“LVDP × HR” for short) is 57.6%. Besides, the “TTC (time to induce contraction / time to contracture)” value under setting [1] was 24.4 min.
As for `COC(OC)[C@]1(C)Oc2ccc([N+](=O)[O-])cc2[C@H](n2c(=S)oc3cc([N+](=O)[O-])ccc32)[C@H]1O` [Example 9, (2R,3R,4S)-6-nitro-3,4-dihydro-3-hydroxy-2-dimethoxymethyl-2-methyl-4-(6-nitro-2-thioxobenzoxazol-3-yl)-2H-1-benzopyran], the “TTC (time to induce contraction / time to contracture)” value amounted to 23.5 min, the “LDH” value stood at 30.1 unit/g, the “EDP” value is 27.0 mmHg and the “LVDP × HR” value stood at 61.1%.
With `COC(OC)[C@]1(C)Oc2ccc([N+](=O)[O-])cc2[C@H](n2c(=S)oc3ccc(Cl)cc32)[C@H]1O` [Example 7, (2R,3R,4S)-6-nitro-3,4-dihydro-3-hydroxy-2-dimethoxymethyl-2-methyl-4-(5-chloro-2-thioxobenzoxazol-3-yl)-2H-1-benzopyran], the “LDH” value turned out to be 21.1 unit/g, the “EDP” value stood at 23.3 mmHg and the “LVDP × HR” value is given as 59.4%. Also, the “TTC (time to induce contraction / time to contracture)” value under setting [1] turned out to be 25.6 min.
In the same order, the values of `COC(OC)[C@@]1(C)Oc2ccc([N+](=O)[O-])cc2[C@H](n2c(=S)oc3ccccc32)[C@H]1O` [Example 3, (2S,3R,4S)-6-nitro-3,4-dihydro-3-hydroxy-2-dimethoxymethyl-2-methyl-4-(2-thioxobenzoxazol-3-yl)-2H-1-benzopyran] are 12.6 unit/g, 15.3 mmHg, 66.8% and 26.6 min.
Consider `COC(OC)[C@]1(C)Oc2ccc(NC(=O)C(F)(F)F)cc2[C@H](n2c(=S)oc3ccccc32)[C@H]1O` [Example 36, (2R,3R,4S)-6-trifluoroacetylamino-3,4-dihydro-3-hydroxy-2-dimethoxymethyl-2-methyl-4-(2-thioxobenzoxazol-3-yl)-2H-1-benzopyran], for which the “EDP” value was 27.3 mmHg and the “LVDP × HR” value came out at 48.4%. Under setting [1], the “TTC (time to induce contraction / time to contracture)” value is 24.9 min.
With `COC(OC)[C@]1(C)Oc2ccc([N+](=O)[O-])cc2[C@H](n2c(=S)oc3cc(C)ccc32)[C@H]1O` [Example 5, (2R,3R,4S)-6-nitro-3,4-dihydro-3-hydroxy-2-dimethoxymethyl-2-methyl-4-(6-methyl-2-thioxobenzoxazol-3-yl)-2H-1-benzopyran], the “LDH” value stood at 20.2 unit/g, the “EDP” value is 21.0 mmHg and the “LVDP × HR” value came to 47.4%. The “TTC (time to induce contraction / time to contracture)” value under setting [1] amounted to 29.0 min.
As for `COC(OC)[C@]1(C)Oc2ccc([N+](=O)[O-])cc2[C@H](n2c(=S)oc3ccc(C(F)(F)F)cc32)[C@H]1O` [Example 16, (2R,3R,4S)-6-nitro-3,4-dihydro-3-hydroxy-2-dimethoxymethyl-2-methyl-4-(5-trifluoromethyl-2-thioxobenzoxazol-3-yl)-2H-1-benzopyran], the “EDP” value was found to be 13.3 mmHg and the “LVDP × HR” value worked out at 79.3%. Under setting [1], the “TTC (time to induce contraction / time to contracture)” value turned out to be 26.5 min.
With `COC(OC)[C@]1(C)Oc2ccc(N)cc2[C@@H](n2c(=S)oc3ccccc32)[C@@H]1O` [Example 20, (2R,3S,4R)-6-amino-3,4-dihydro-3-hydroxy-2-dimethoxymethyl-2-methyl-4-(2-thioxobenzoxazol-3-yl)-2H-1-benzopyran], the “LDH” value turned out to be 3.9 unit/g, the “EDP” value came out at 43.3 mmHg and the “LVDP × HR” value stood at 42.0%. Moreover, the “TTC (time to induce contraction / time to contracture)” value under setting [1] came out at 21.3 min.
